The text below walks through data of patent publication US20120010159A1, “COMBINATION THERAPIES WITH COX-2 INHIBITORS AND TREPROSTINIL” (United Therapeutics Corporation, priority 2010, published 2012).

The conditions of series [1]: administered by subcutaneous infusion; cited from earlier work.
The conditions of series [2]: oral administration; cited from earlier work.
Series [3] can be described thus: bioavailability when delivered to the duodenum. It is filed as in vivo. As to conditions: duodenal delivery. The text has this: Accordingly, one embodiment of the present invention involves preferential delivery of the desired compound to the duodenum as well as pharmaceutical formulations that achieve duodenal delivery. Duodenal administration can be achieved by any means known in the art. In one of these embodiments, the present compounds can be formulated in an enteric-coated dosage form. Generally, enteric-coated dosage forms are usually coated with a polymer that is not soluble at low pH, but dissolves quickly when exposed to pH conditions of 3 or above. This delivery form takes advantage of the difference in pH between the stomach, which is about 1 to 2, and the duodenum, where the pH tends to be greater than 4.

As for `CCCCC[C@H](O)CC[C@@H]1[C@H]2Cc3cccc(OCC(=O)O)c3C[C@H]2C[C@H]1O` [treprostinil sodium], the absolute bioavailability in series [1] was ~100%.
With `CCCCC[C@H](O)CC[C@@H]1[C@H]2Cc3cccc(OCC(=O)O)c3C[C@H]2C[C@H]1O` [treprostinil], the absolute oral bioavailability in series [2] is given as ~10%. Moreover, the “bioavailability when delivered to the duodenum” value in series [3] is recorded as “increased bioavailability”.
